In brackets after ≈: the same amount, converted by molar mass. Entries after “also recorded” stand apart in the source; their conditions may differ. Read-outs that look alike come from different tables or passages of the source.
What was measured:
[1] = system: T follicular helper (Tfh) cells; assay: In vivo immunosuppression, T follicular helper cells (Example 1); design: species or system mouse (C57BL/6); conditions: daily i.p., FK506 5 mg/kg or JH-FK-05 60 mg/kg; day 7
Experimental: Based on the in vitro evidence of reduced immunosuppressive activity of JH-FK-05, it was hypothesized that this reduction would translate into reduced immunosuppression in an in vivo model. The murine model for immunosuppression measures the T cell-dependent proliferation of two immune cell subtypes in response to immunization with an antigen. Animals were treated daily via intraperitoneal (i.p.) injection with vehicle, 5 mg/kg FK506, or 60 mg/kg JH-FK-05, beginning on day −1 and ending on day 7. […] On day 0, animals were immunized with NP-OVA to stimulate T cell-dependent signaling that would result in proliferation of T follicular helper (Tfh) cells and germinal center (GC) B cells. Animals were sacrificed on day 7, and the proportions of Tfh and GC B cells in the lymph nodes were measured. […]
Groups of 6 female C57BL/6 mice (Jackson Laboratory) were treated daily by intraperitoneal (i.p.) injection with about 100 μL vehicle, 5 mg/kg FK506, or 60 mg/kg JH-FK-05 beginning on day −1. […] Mice were treated and monitored daily until they were sacrificed on day 7. Draining lymph nodes were harvested on day 7, and the populations of T follicular helper cells and GC B cells were analyzed by flow cytometry. Tfh and GC B cells were measured from T Cell Receptor β (TCRβ^+) CD4^+CD44^hi cells and TCRβ^−CD19^+ cells, respectively.

[2] = system: C. neoformans; assay: MIC assay (Example 4); assay type: cell-based, Cryptococcus neoformans; conditions: 37° C.; for MIC: Cryptococcus neoformans, read-out: C. neoformans MIC
Experimental: Both JH-FK-10 and JH-FK-11 maintained in vitro antifungal activity against C. neoformans with MICs of 0.8 and 1.6 μg/mL, respectively (Table 11).
In vitro antifungal activity of FK506, FK520, and analogs was assessed in RPMI 1640 (Sigma-Aldrich) for all strains tested. Minimum inhibitory concentrations (MIC) for each drug were measured using modified Clinical and Laboratory Standards Institute (CLSI) M38-A2 and M27-A3 standard in vitro antifungal susceptibility protocols. Broth microdilution assays for MIC assessment were performed as previously described. All antifungal assays with C. neoformans were performed at 37° C.

[3] = system: IL-2 expression in primary murine CD4+ T cells; assay: In vitro immunosuppressive activity, IL-2 expression (Example 1); assay type: cell-based, mouse; conditions: for IC50: Mus musculus, CD4+ T, 72 h, PMA and ionomycin stimulation, read-out: IL-2 50% inhibitory concentration (IC50)
Experimental: The potent immunosuppressive activity of FK506 and FK520 is what precludes these highly antifungal compounds from being utilized clinically to treat invasive fungal infections. Therefore, it is essential to understand the level of immunosuppressive activity for each of these analogs to determine if these C-22 modifications improve the fungal selectivity. Utilizing a primary murine T-cell model, IL-2 expression was assessed following growth in the presence of calcineurin inhibitors (FIG. 6A). Naive, primary CD4^+ T cells were collected from mice and grown for 72 h in the presence of FK506, FK520, or an analog. Following stimulation with phorbol 12-myristate 13-acetate (PMA) and ionomycin, the proportion of cells producing IL-2, a key calcineurin-dependent cytokine, was measured with flow cytometry. All compounds generated a dose-dependent reduction in IL-2 production.
Spleen and lymph nodes were collected from C57BL/6 mice and homogenized through a 40-μm filter. Pan-CD4^+ T cells were enriched using a MagniSort mouse CD4 T-cell kit (eBioscience) according to the manufacturer's protocol. Thereafter, CD4^+CD25^− CD44^loCD62L^hi naive T cells were sorted by fluorescence-activated cell sorting (FACS). The naive CD4^+ T cells were grown in Iscove's modified Dulbecco's medium (IMDM) supplemented with glutamine, penicillin, streptomycin, gentamicin, 2-mercaptoethanol, and 10% fetal bovine serum (FBS). Cells were then cultured on anti-hamster IgG-coated plates in the presence of hamster anti-CD3 epsilon and anti-CD28 antibodies (BD Biosciences), neutralizing anti-IL-4 antibody (eBioscience), recombinant IL-12 (10 ng/mL), and recombinant IL-2 (50 U/mL) for 72 h. During this period, cells were grown in the presence of 2× serially diluted FK506, FK520, or analog suspended in DMSO for 72 h. During the last 4 h of culture, phorbol 12-myristate 13-acetate (PMA; Sigma), ionomycin (Sigma), and GolgiStop (BD Biosciences) were added to the culture to facilitate detection of intracellular cytokines via flow cytometry. Live cells were stained with fluorescein isothiocyanate (FITC)-conjugated anti-CD4 antibody (eBioscience) and fixable viability dye eFluor 506 (eBioscience) on ice, followed by fixation and permeabilization using the Foxp3 transcription factor staining kit (eBioscience). Intracellular staining was performed at room temperature using phycoerythrin (PE)-conjugated anti-IL-2 antibody (eBioscience), followed by analysis with a BD LSRFortessa X-20 flow cytometer.

[4] = system: IL-2 expression in primary mouse CD4+ T cells (mammalian calcineurin); assay: In vitro immunosuppressive activity, IL-2 expression (Example 3); assay type: cell-based; conditions: 72 h
Experimental: Modifications at the C-22 position reduce inhibition of mammalian calcineurin signaling Mammalian calcineurin inhibition was then assessed and found to be reduced for these FK520 analogs. The inhibition of mammalian calcineurin was assessed by measuring the reduction of IL-2 expression from primary mouse CD4^+ T cells cultured in the presence of FK506, FK520, or an analog. Calcineurin activity is required for T cell activation and cytokine production, and IL-2 production serves as an effective measure of mammalian calcineurin activity. After culturing mouse CD4′ T cells for 72 h, IL-2 expression was analyzed by flow cytometry to evaluate the immunosuppressive activity of the analogs. […] However, compound concentrations that permit high IL-2 expression are less likely to result in cell death.
Spleen and lymph nodes from C57BL/6 mice were collected and homogenized through a 40-μm filter. Pan-CD4^+ T cells were enriched using the MagniSort Mouse CD4 T Cell Enrichment Kit (Invitrogen). Thereafter, CD4^+CD25^−CD62L^hiCD44^lo naïve CD4^+ T cells were FACS-sorted using a MoFlo Astrios cell sorter (Beckman Coulter). Naïve CD4^+ T cells were cultured in Iscove's Modified Dulbecco's Medium supplemented with 10% fetal bovine serum (FBS), penicillin (10 U/mL), streptomycin (10 μg/mL), glutamine (2 mM), gentamicin (50 μg/mL), and β-mercaptoethanol (55 μM). Cells were cultured for 72 h on anti-hamster IgG-coated plates with hamster anti-CD3s antibodies, hamster anti-CD28 antibodies, neutralizing anti-IL-4 antibodies, recombinant IL-12 (10 ng/mL), and recombinant IL-2 (50 U/mL). During this culture, cells were incubated with serially diluted drugs suspended in DMSO.

[5] = system: Aspergillus fumigatus; assay: MEC assay (Example 3)

SMILES: CC[C@@H]1/C=C(\C)C[C@H](C)C[C@H](OC)[C@H]2O[C@@](O)(C(=O)C(=O)N3CCCC[C@H]3C(=O)O[C@H](/C(C)=C/[C@@H]3CC[C@@H](O)[C@H](OC)C3)[C@H](C)[C@@H](O)C/C1=N/NC(C)=O)[C@H](C)C[C@@H]2OC [JH-FK-05]
- proliferation/presence of Tfh cells [1]: did not reduce the presence of either cell type and was statistically indistinguishable from the vehicle treatment
- MIC ([2]; Table 13): 1 µg/mL (≈ 1.18 µM)
- IC50 [3]: 20 nM

SMILES: CC[C@@H]1/C=C(\C)C[C@H](C)C[C@H](OC)[C@H]2O[C@@](O)(C(=O)C(=O)N3CCCC[C@H]3C(=O)O[C@H](/C(C)=C/C3CC[C@@H](O)[C@H](OC)C3)[C@H](C)[C@@H](O)C/C1=N/NC(=O)OC)[C@H](C)C[C@@H]2OC (stereo partly shown) [JH-FK-08]
- IC50 [4]: 42.6 nM
- MEC against Aspergillus fumigatus (akuB^Ku80) ([5]; strain akuB^Ku80): 1.3 µg/mL
- MIC/MEC ([5]; strain akuB^Ku80): 1.25 µg/mL (≈ 1.45 µM)
- MIC/MEC ([5]; strain Δfkbp12 (akuB^Ku80 fkbp12Δ)): >20 µg/mL

SMILES: CC[C@@H]1/C=C(\C)C[C@H](C)C[C@H](OC)[C@H]2O[C@@](O)(C(=O)C(=O)N3CCCC[C@H]3C(=O)O[C@H](/C(C)=C/[C@@H]3CC[C@@H](O)[C@H](OC)C3)[C@H](C)[C@@H](O)CC1=O)[C@H](C)C[C@@H]2OC [FK520, reference compound]
- IC50 [4]: 0.3 nM
- MEC against Aspergillus fumigatus (akuB^Ku80) [5]: 0.16 µg/mL
- C. neoformans MIC ([2]; Table 11): 0.05 µg/mL
- C. neoformans MIC ([2]; Table 12): 0.05 µg/mL
- C. neoformans MIC ([2]; Table 13): 0.05 µg/mL
- IL-2 inhibition / immunosuppression [3]: highest level of IL-2 inhibition; also recorded: slightly reduced compared to that of FK506

SMILES: C=CCC1C=C(C)CC(C)CC(OC)C2OC(O)(C(=O)C(=O)N3CCCCC3C(=O)OC(C(C)=CC3CCC(O)C(OC)C3)C(C)C(O)CC1=O)C(C)CC2OC (stereo not shown) [FK506, reference compound]
- IC50 [4]: 0.09 nM
- proliferation/presence of Tfh cells [1]: significantly reduced the proliferation
- MEC against Aspergillus fumigatus (akuB^Ku80) ([5]; strain akuB^Ku80): 0.04 µg/mL
- MIC ([2]; Table 11): 0.05 µg/mL (≈ 0.0622 µM)
- MIC ([2]; Table 12): 0.05 µg/mL (≈ 0.0622 µM)
- MIC ([2]; Table 13): 0.05 µg/mL (≈ 0.0622 µM)
- IL-2 inhibition / immunosuppression [3]: highest level of IL-2 inhibition

SMILES: C=CC[C@@H]1/C=C(\C)C[C@H](C)C[C@H](OC)[C@H]2O[C@@](O)(C(=O)C(=O)N3CCCC[C@H]3C(=O)O[C@H](/C(C)=C/[C@@H]3CC[C@@H](O)[C@H](OC)C3)[C@H](C)[C@@H](O)C/C1=N/NC(=O)CC)[C@H](C)C[C@@H]2OC [JH-FK-02]
- IC50 [3]: 42.6 nM
- fold increase of IL-2 IC50 / reduction of immunosuppression compared to FK506 ([3]; relative to FK506): > 380 fold
